In ChEMBL document CHEMBL3865816, “Design, synthesis and biological evaluation of novel azaspiro analogs of linezolid as antibacterial and antitubercular agents” (Eur J Med Chem, 2016):
Converted amounts (≈) assume the structure as drawn.

What was measured:
Format in all cases: functional
Escherichia coli [1] = assay: Antibacterial activity against Escherichia coli NCIM 2688 at 10 ug/ml measured after 8 hrs by spectrophotometric method; details: NCIM 2688, 8 h
Bacillus subtilis [2] = assay: Antibacterial activity against Bacillus subtilis NCIM 2010 at 30 ug/ml measured after 12 hrs by spectrophotometric method; details: NCIM 2010, 12 h
Staphylococcus aureus [3] = assay: Antibacterial activity against Staphylococcus aureus NCIM 2079 measured after 12 hrs by spectrophotometric method; details: NCIM 2079, 12 h
Bacillus subtilis [4] = assay: Antibacterial activity against Bacillus subtilis NCIM 2010 at 10 ug/ml measured after 12 hrs by spectrophotometric method; details: NCIM 2010, 12 h
[5] = test system: Mycobacterium tuberculosis; assay: Antitubercular activity against dormant stage Mycobacterium tuberculosis H37Ra at 3 ug/ml measured after 12 days by XTT assay; details: 288 h
Escherichia coli [6] = assay: Antibacterial activity against Escherichia coli NCIM 2688 at 3 ug/ml measured after 8 hrs by spectrophotometric method; details: NCIM 2688, 8 h
[7] = test system: Mycobacterium tuberculosis; assay: Antitubercular activity against dormant stage Mycobacterium tuberculosis H37Ra measured after 12 days by XTT assay; details: 288 h
[8] = test system: Mycobacterium tuberculosis; assay: Antitubercular activity against dormant stage Mycobacterium tuberculosis H37Ra at 30 ug/ml measured after 12 days by XTT assay; details: 288 h
Pseudomonas aeruginosa [9] = assay: Antibacterial activity against Pseudomonas aeruginosa NCIM 2036 at 10 ug/ml measured after 8 hrs by spectrophotometric method; details: NCIM 2036, 8 h
Bacillus subtilis [10] = assay: Antibacterial activity against Bacillus subtilis NCIM 2010 measured after 12 hrs by spectrophotometric method; details: NCIM 2010, 12 h
Escherichia coli [11] = assay: Antibacterial activity against Escherichia coli NCIM 2688 at 30 ug/ml measured after 8 hrs by spectrophotometric method; details: NCIM 2688, 8 h
Bacillus subtilis [12] = assay: Antibacterial activity against Bacillus subtilis NCIM 2010 at 3 ug/ml measured after 12 hrs by spectrophotometric method; details: NCIM 2010, 12 h
Escherichia coli [13] = assay: Antibacterial activity against Escherichia coli NCIM 2688 measured after 8 hrs by spectrophotometric method; details: NCIM 2688, 8 h
Staphylococcus aureus [14] = assay: Antibacterial activity against Staphylococcus aureus NCIM 2079 at 10 ug/ml measured after 12 hrs by spectrophotometric method; details: NCIM 2079, 12 h
Staphylococcus aureus [15] = assay: Antibacterial activity against Staphylococcus aureus NCIM 2079 at 30 ug/ml measured after 12 hrs by spectrophotometric method; details: NCIM 2079, 12 h
Pseudomonas aeruginosa [16] = assay: Antibacterial activity against Pseudomonas aeruginosa NCIM 2036 measured after 8 hrs by spectrophotometric method; details: NCIM 2036, 8 h
Staphylococcus aureus [17] = assay: Antibacterial activity against Staphylococcus aureus NCIM 2079 at 3 ug/ml measured after 12 hrs by spectrophotometric method; details: NCIM 2079, 12 h
Pseudomonas aeruginosa [18] = assay: Antibacterial activity against Pseudomonas aeruginosa NCIM 2036 at 3 ug/ml measured after 8 hrs by spectrophotometric method; details: NCIM 2036, 8 h
[19] = test system: Mycobacterium tuberculosis; assay: Antitubercular activity against dormant stage Mycobacterium tuberculosis H37Ra at 10 ug/ml measured after 12 days by XTT assay; details: 288 h
Pseudomonas aeruginosa [20] = assay: Antibacterial activity against Pseudomonas aeruginosa NCIM 2036 at 30 ug/ml measured after 8 hrs by spectrophotometric method; details: NCIM 2036, 8 h
[21] = test system: Mycobacterium tuberculosis; assay: Antitubercular activity against active stage Mycobacterium tuberculosis H37Ra measured after 8 days by XTT assay; details: 192 h

SMILES	inhibition at 10 µg/mL (Escherichia coli [1])	inhibition at 30 µg/mL (Bacillus subtilis [2])	IC50 (Staphylococcus aureus [3])	MIC (Staphylococcus aureus [3])	inhibition at 10 µg/mL (Bacillus subtilis [4])	inhibition at 3 µg/mL [5]	inhibition at 3 µg/mL (Escherichia coli [6])	IC50 [7]	MIC [7]	inhibition at 30 µg/mL [8]	inhibition at 10 µg/mL (Pseudomonas aeruginosa [9])	IC50 (Bacillus subtilis [10])	MIC (Bacillus subtilis [10])	inhibition at 30 µg/mL (Escherichia coli [11])	inhibition at 3 µg/mL (Bacillus subtilis [12])	IC50 (Escherichia coli [13])	MIC (Escherichia coli [13])	inhibition at 10 µg/mL (Staphylococcus aureus [14])	inhibition at 30 µg/mL (Staphylococcus aureus [15])	IC50 (Pseudomonas aeruginosa [16])	other results
CC(=O)NC[C@H]1CN(c2ccc(C3=C[C@H]4CC[C@@H](C3)N4C(=O)OC(C)(C)C)c(F)c2)C(=O)O1	94.4%	99.1%	0.74 mg/L (≈ 1.61 µM)	2.95 mg/L (≈ 6.42 µM)	97.3%	34.8%	89.2%	10.8 mg/L (≈ 23.6 µM)	20.5 mg/L (≈ 44.6 µM)	94.2%	88.3%	0.55 mg/L (≈ 1.2 µM)	5.67 mg/L (≈ 12.3 µM)	98.7%	85.7%	0.57 mg/L (≈ 1.24 µM)	3.66 mg/L (≈ 7.96 µM)	97.9%	99.1%	0.67 mg/L (≈ 1.46 µM)	MIC (Pseudomonas aeruginosa [16]): 15.1 mg/L (≈ 32.8 µM); inhibition at 3 µg/mL (Staphylococcus aureus [17]): 90.5%; inhibition at 3 µg/mL (Pseudomonas aeruginosa [18]): 83.8%; inhibition at 10 µg/mL [19]: 79.6%; inhibition at 30 µg/mL (Pseudomonas aeruginosa [20]): 93.9%; IC50 [21]: 12.3 mg/L (≈ 26.8 µM); MIC [21]: 21.4 mg/L (≈ 46.6 µM)
O=C1OC2(CCN(Cc3ccccc3)C2)CN1c1ccc(N2CCOCC2)c(F)c1 (stereo unspecified)	23.7%	14.7%	> 100 mg/L	> 100 mg/L	17.4%	18.1%	31.2%	> 100 mg/L	> 100 mg/L	20.8%	32.7%	> 100 mg/L	> 100 mg/L	23.9%	24.5%	> 100 mg/L	> 100 mg/L	22.9%	23.1%	> 100 mg/L	MIC (Pseudomonas aeruginosa [16]): > 100 mg/L; inhibition at 3 µg/mL (Staphylococcus aureus [17]): 30.5%; inhibition at 3 µg/mL (Pseudomonas aeruginosa [18]): 35.9%; inhibition at 10 µg/mL [19]: 7.06%; inhibition at 30 µg/mL (Pseudomonas aeruginosa [20]): 50.1%
CC(=O)N1CCC2(C1)CN(c1ccc(N3CCOCC3)c(F)c1)C(=O)O2 (stereo unspecified)	42%	42.2%	> 100 mg/L	> 100 mg/L	32.2%	19.7%	36.2%	> 100 mg/L	> 100 mg/L	12%	48.4%	> 100 mg/L	> 100 mg/L	46%	23.9%	> 100 mg/L	> 100 mg/L	50.2%	53.6%	> 100 mg/L	MIC (Pseudomonas aeruginosa [16]): > 100 mg/L; inhibition at 3 µg/mL (Staphylococcus aureus [17]): 45.2%; inhibition at 3 µg/mL (Pseudomonas aeruginosa [18]): 42.8%; inhibition at 10 µg/mL [19]: -8.05%; inhibition at 30 µg/mL (Pseudomonas aeruginosa [20]): 56.2%
O=C1O[C@@H](CNC(=S)Nc2ccccc2F)CN1c1ccc(N2CC3(COC3)C2)c(F)c1	42.8%	101%	0.6 mg/L (≈ 1.3 µM)	5.76 mg/L (≈ 12.5 µM)	96.6%	25.1%	25%	22.8 mg/L (≈ 49.6 µM)	41.6 mg/L (≈ 90.4 µM)	87.6%	87.4%	1.31 mg/L (≈ 2.84 µM)	5.18 mg/L (≈ 11.2 µM)	51.9%	81%	> 100 mg/L	> 100 mg/L	95.7%	99.3%	0.98 mg/L (≈ 2.13 µM)	MIC (Pseudomonas aeruginosa [16]): 15.9 mg/L (≈ 34.5 µM); inhibition at 3 µg/mL (Staphylococcus aureus [17]): 85.9%; inhibition at 3 µg/mL (Pseudomonas aeruginosa [18]): 77.8%; inhibition at 10 µg/mL [19]: 57.4%; inhibition at 30 µg/mL (Pseudomonas aeruginosa [20]): 96%; IC50 [21]: 16.3 mg/L (≈ 35.5 µM); MIC [21]: 41.1 mg/L (≈ 89.3 µM)
CC(=O)NC[C@H]1CN(c2ccc(N3CCOCC3)c(F)c2)C(=O)O1 [LINEZOLID]	99.8%	99.8%	0.42 mg/L (≈ 1.24 µM)	1.13 mg/L (≈ 3.35 µM)	99.4%	84%	99.3%	0.71 mg/L (≈ 2.1 µM)	1.25 mg/L (≈ 3.71 µM)	95.5%	99%	0.64 mg/L (≈ 1.9 µM)	1.8 mg/L (≈ 5.34 µM)	100%	98.9%	0.49 mg/L (≈ 1.45 µM)	1.15 mg/L (≈ 3.41 µM)	99.5%	99.1%	0.49 mg/L (≈ 1.45 µM)	MIC (Pseudomonas aeruginosa [16]): 1.31 mg/L (≈ 3.88 µM); inhibition at 3 µg/mL (Staphylococcus aureus [17]): 99.5%; inhibition at 3 µg/mL (Pseudomonas aeruginosa [18]): 99.2%; inhibition at 10 µg/mL [19]: 96.6%; inhibition at 30 µg/mL (Pseudomonas aeruginosa [20]): 99.9%; IC50 [21]: 0.8 mg/L (≈ 2.37 µM); MIC [21]: 1.31 mg/L (≈ 3.88 µM)
